Structures can show the parent of a compound that is named as a salt. Where two headings read alike, the source gives them in different places.
Key:
[1] = biological target: T1, human serotonin transporter (Homo sapiens (Human), UniProt P31645); assay: hSERT binding assay ([3H]Imipramine); conditions: for inhibition at 10 µM: read-out: hSERT binding assay %-inhibition (10 uM);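 for all read-outs here: displacement of radiolabeled imipramine from the transporter, incubated 30 min at 27 °C in Tris-HCl pH 7.4 with NaCl and KCl, bound radioactivity counted after filtration, nonspecific binding defined with 200 uM imipramine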
T1 sequence (P31645 whole entry): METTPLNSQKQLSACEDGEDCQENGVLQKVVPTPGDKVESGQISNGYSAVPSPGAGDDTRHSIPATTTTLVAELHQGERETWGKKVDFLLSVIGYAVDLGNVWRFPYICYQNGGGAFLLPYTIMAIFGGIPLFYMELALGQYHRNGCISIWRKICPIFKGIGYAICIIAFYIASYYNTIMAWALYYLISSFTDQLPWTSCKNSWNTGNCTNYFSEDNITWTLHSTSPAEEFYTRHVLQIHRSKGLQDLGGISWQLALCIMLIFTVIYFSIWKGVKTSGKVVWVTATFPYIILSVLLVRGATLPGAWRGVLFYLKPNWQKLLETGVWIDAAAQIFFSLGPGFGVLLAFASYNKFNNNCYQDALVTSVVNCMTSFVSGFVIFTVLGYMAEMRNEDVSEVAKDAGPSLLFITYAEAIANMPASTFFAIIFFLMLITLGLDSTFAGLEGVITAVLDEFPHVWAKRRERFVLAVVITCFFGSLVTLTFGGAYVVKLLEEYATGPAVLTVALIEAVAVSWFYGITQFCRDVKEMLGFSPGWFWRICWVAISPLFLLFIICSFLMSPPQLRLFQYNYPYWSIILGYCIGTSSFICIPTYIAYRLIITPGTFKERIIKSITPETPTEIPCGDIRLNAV

[2] = biological target: T2, human norepinephrine transporter (Homo sapiens (Human), UniProt P23975); assay: hNET binding assay ([3H]Nisoxetine); conditions: for inhibition at 10 µM: read-out: hNET binding assay %-inhibition (10 uM)
T2 sequence (P23975 whole entry): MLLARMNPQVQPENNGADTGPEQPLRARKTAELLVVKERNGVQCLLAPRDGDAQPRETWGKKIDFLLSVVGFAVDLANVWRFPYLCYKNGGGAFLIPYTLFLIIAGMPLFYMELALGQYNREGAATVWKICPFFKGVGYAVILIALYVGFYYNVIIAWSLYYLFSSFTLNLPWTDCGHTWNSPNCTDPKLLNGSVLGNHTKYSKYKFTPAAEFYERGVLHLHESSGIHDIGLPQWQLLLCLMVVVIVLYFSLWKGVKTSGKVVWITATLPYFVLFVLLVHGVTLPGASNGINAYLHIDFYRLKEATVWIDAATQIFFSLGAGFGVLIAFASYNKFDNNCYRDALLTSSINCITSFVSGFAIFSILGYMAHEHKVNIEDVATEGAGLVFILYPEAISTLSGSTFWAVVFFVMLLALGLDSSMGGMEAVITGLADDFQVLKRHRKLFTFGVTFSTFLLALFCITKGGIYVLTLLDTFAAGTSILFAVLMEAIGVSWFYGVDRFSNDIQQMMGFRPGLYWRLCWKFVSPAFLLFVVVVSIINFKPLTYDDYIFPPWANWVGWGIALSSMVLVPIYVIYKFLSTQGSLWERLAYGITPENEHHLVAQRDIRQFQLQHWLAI
Procedure: NE transporter binding assay for evaluating binding of the compound to the norepinephrine transporter was carried out using human recombinant norepinephrine transporter membrane (PerkinElmer Life and Analytical Sciences, USA) expressed in MDCK cells and radioisotope [^3H]Nisoxetine (PerkinElmer).
That is, the test drug, 6 nM [^3H]Nisoxetine, norepinephrine transporter membrane (11 ug/well), 120 mM NaCl and 50 mM Tris-HCl buffer (pH 7.4) containing 5 mM KCl were added to obtain a reaction mixture with a final volume of 0.25 ml. After incubation for 60 minutes at 4° C., the mixture was quickly passed through a Filtermat A glass fiber filter pre-soaked with 0.5% (w/v) PEI (polyethyleneimine) using Inotech Harvester (Inotech) to terminate the reaction. After washing with cold washing buffer (50 mM Tris-HCl, pH 7.4, 0.9% NaCl) solution, the filter was covered with MeltiLex and sealed in a sample bag. After drying in an oven, radioactivity was counted using MicroBeta Plus (Wallac).
Non-specific binding was measured in the presence of 1 uM desipramine. The IC50 value of the test drug was calculated from non-linear regression analysis (GraphPad Prism Program, San Diego, USA) of each %-inhibition value obtained from the drug with concentrations of 7th and 8th steps.

[3] = biological target: T3, human dopamine transporter (Homo sapiens (Human), UniProt Q01959); assay: hDAT binding assay ([3H]WIN35,428); conditions: for IC50: 8 nM [3H]WIN35,428; for inhibition at 10 µM: read-out: hDAT binding assay %-inhibition (10 uM);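 for all read-outs here: displacement of the radioligand from the transporter membranes, incubated 120 min at 4 °C in Tris-HCl buffer with NaCl, pH 7.4, measured by filter-bound radioactivity counting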
T3 sequence (Q01959 whole entry): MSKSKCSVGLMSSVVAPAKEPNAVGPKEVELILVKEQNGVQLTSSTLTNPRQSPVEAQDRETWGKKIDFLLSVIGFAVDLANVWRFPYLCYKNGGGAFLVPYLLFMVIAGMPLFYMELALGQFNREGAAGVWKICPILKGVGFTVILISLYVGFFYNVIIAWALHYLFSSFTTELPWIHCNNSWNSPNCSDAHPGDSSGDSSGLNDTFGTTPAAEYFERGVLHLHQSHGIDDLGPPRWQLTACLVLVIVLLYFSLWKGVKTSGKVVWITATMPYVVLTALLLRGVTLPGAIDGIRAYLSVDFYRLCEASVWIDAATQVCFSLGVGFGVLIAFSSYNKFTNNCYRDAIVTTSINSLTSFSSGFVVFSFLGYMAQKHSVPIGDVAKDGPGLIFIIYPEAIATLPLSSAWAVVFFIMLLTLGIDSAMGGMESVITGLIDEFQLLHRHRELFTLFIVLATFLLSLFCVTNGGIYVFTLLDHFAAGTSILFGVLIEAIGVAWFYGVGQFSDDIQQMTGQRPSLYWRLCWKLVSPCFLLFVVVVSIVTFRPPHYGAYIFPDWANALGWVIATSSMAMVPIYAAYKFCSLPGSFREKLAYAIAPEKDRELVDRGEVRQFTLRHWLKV

[4] = biological target: T1, human serotonin transporter; assay: hSERT reuptake assay (HEK-hSERT, FDSS6000); assay type: cell-based; conditions: HEK-hSERT cells
[5] = biological target: T2, human norepinephrine transporter; assay: hNET reuptake assay (HEK-hNET, FDSS6000); assay type: cell-based; conditions: HEK-hNET cells
[6] = biological target: T3, human dopamine transporter; assay: hDAT reuptake assay (HEK-hDAT, FDSS6000); assay type: cell-based; conditions: HEK-hDAT cells
[7] = 10 uM, membrane from HEK293 cells
[8] = membrane from HEK293 cells, 2 nM [3H]Imipramine
[9] = 10 uM, membrane from MDCK cells
[10] = membrane from MDCK cells, 6 nM [3H]Nisoxetine
[11] = 10 uM, membrane from CHO-K1 cells

SMILES | inhibition at 10 µM [1, 7] [%] | IC50 [1, 8] [nM] | inhibition at 10 µM [2, 9] [%] | IC50 [2, 10] [nM] | IC50 ([3]; membrane from CHO-K1 cells) [nM] | inhibition at 10 µM [3] [%] | IC50 ([4]; Table 3) [nM] | IC50 ([5]; Table 3) [nM] | IC50 ([6]; Table 3) [nM] | melting point [°C] | IC50 ([4]; Table 4) [nM] | IC50 ([5]; Table 4) [nM] | IC50 ([6]; Table 4) [nM] | other results
c1ccc(OC(c2ccccc2)C2CNC2)cc1 (centres unmarked) [KHG26765, hydrochloride] | 98 | 112 | 90 | 1660 | 857 | 87 | 50 | 40 | 380 |  |  |  |  | 
Cl.Clc1ccc(C(Oc2ccccc2)C2CNC2)cc1 (centres unmarked) [KHG26766, 3-((4-chlorophenyl)(phenoxy)methyl)azetidine hydrochloride] |  |  | 90 | 90.2 | 227 | 94 | 40 | 40 | 150 | 191 |  |  |  | IC50 [1]: 9.2 nM; inhibition at 10 µM [1]: 98%
Clc1ccc(C(Oc2ccccc2)C2CNC2)cc1Cl (centres unmarked) [KHG26767, 3-((3,4-dichlorophenyl)(phenoxy)methyl)azetidine hydrochloride] | 98 | 4.3 | 100 | 5.5 | 68.8 |  | 50 | 30 | 60 |  |  |  |  | inhibition at 10 µM [3, 11]: 94%
Cl.c1ccc(COC(c2ccccc2)C2CNC2)cc1 (centres unmarked) [KHG26768, 3-((benzyloxy)(phenyl)methyl)azetidine hydrochloride] | 97 | 82.9 | 84 | 2300 | 985 | 90 | 4600 | 800 | 1900 | 185 |  |  |  | 
Cl.Clc1ccc(C(OCc2ccccc2)C2CNC2)cc1 (centres unmarked) [KHG26769, 3-((benzyloxy)(4-chlorophenyl)methyl)azetidine hydrochloride] | 100 | 21.6 | 94 | 1340 | 290 | 84 | 1500 | 500 | 800 | 184 |  |  |  | 
Cl.Clc1ccc(C(OCc2ccccc2)C2CNC2)cc1Cl (centres unmarked) [KHG26770, 3-((benzyloxy)(3,4-dichlorophenyl)methyl)azetidine hydrochloride] | 98 | 7.81 | 99 | 93.1 | 23.2 | 96 | 900 | 700 | 800 | 128 |  |  |  | 
Cl.O=C(OC(c1ccc(Cl)cc1)C1CNC1)c1ccccc1 (centres unmarked) [KHG26772, azetidine-3-ly(4-chlorophenyl)methyl benzoate hydrochloride] |  | 357 |  | 3480 | 319 |  | 2600 | 2500 | 1300 |  |  |  |  | hSERT binding assay %-inhibition (10 uM) [1, 7]: 96%; hNET binding assay %-inhibition (10 uM) [2, 9]: 90%; hDAT binding assay %-inhibition (10 uM) [3, 11]: 66%
Cl.O=C(OC(c1ccc(Cl)c(Cl)c1)C1CNC1)c1ccccc1 (centres unmarked) [KHG26773, azetidine-3-ly(3,4-dichlorophenyl)methyl benzoate hydrochloride] |  | 69.9 |  | 214 | 241 |  | 900 | 1100 | 500 |  |  |  |  | hSERT binding assay %-inhibition (10 uM) [1, 7]: 100%; hNET binding assay %-inhibition (10 uM) [2, 9]: 100%; hDAT binding assay %-inhibition (10 uM) [3, 11]: 97%
Cc1ccccc1OC(c1ccc(Cl)c(Cl)c1)C1CNC1.Cl (centres unmarked) [KHG26774, 3-((3,4-dichlorophenyl)(ortho-tolyloxy)methyl)azetidine hydrochloride] |  |  | 100 | 25.8 | 119 | 96 | 800 | 2200 | 300 | 194 |  |  |  | IC50 [1]: 11.6 nM; inhibition at 10 µM [1]: 100%
Cc1cccc(OC(c2ccc(Cl)c(Cl)c2)C2CNC2)c1.Cl (centres unmarked) [KHG26775, 3-((3,4-dichlorophenyl)(meta-tolyloxy)methyl)azetidine hydrochloride] | 99 | 19.8 | 100 | 28.4 | 61.8 | 99 | 600 | 600 | 400 | 200 |  |  |  | 
Cc1ccc(OC(c2ccc(Cl)c(Cl)c2)C2CNC2)cc1.Cl (centres unmarked) [KHG26776, 3-((3,4-dichlorophenyl)(para-tolyloxy)methyl)azetidine hydrochloride] | 100 | 5.67 |  |  | 168 | 95 | 700 | 500 | 300 | 193 |  |  |  | IC50 [2]: 27.1 nM; inhibition at 10 µM [2]: 100%
CN1CC(C(Oc2ccccc2)c2ccc3ccccc3c2)C1 (centres unmarked) [KHG26907, 1-methyl-3-(naphthalene-2-yl(phenoxy)methyl)azetidine] |  |  |  |  |  |  |  |  |  |  | 202 | 87.9 | 223 | 
CC(C)(C)OC(c1ccc(Cl)c(Cl)c1)C1CNC1.Cl (centres unmarked) [KHG27252, 3-(tertiarybutoxy(3,4-dichlorophenyl)methyl)azetidine hydrochloride] |  |  |  |  |  |  |  |  |  | 159.9 | 87 | 96 | 100 | 
Cl.Clc1ccc(C(OC2CCC2)C2CNC2)cc1Cl (centres unmarked) [KHG27253, 3-(cyclobutoxy(3,4-dichlorophenyl)methyl)azetidine hydrochloride] |  |  |  |  |  |  |  |  |  | 166.1 | 25.6 | 11 | 33.4 | 
Clc1ccc(C(OC2CCCC2)C2CNC2)cc1Cl (centres unmarked) [KHG27254, 3-((cyclopentyloxy)(3,4-dichlorophenyl)methyl)azetidine hydrochloride] |  |  |  |  |  |  |  |  |  |  | 25.8 | 15.8 | 25.8 | 
Cl.Clc1ccc(C(OC2CCCCC2)C2CNC2)cc1Cl (centres unmarked) [KHG27255, 3-((cyclohexyloxy)(3,4-dichlorophenyl)methyl)azetidine hydrochloride] |  |  |  |  |  |  |  |  |  | 189.4 | 58.4 | 14.2 | 54.8 | 
CCCC(Oc1ccc2ccccc2c1)C1CNC1.Cl (centres unmarked) [KHG27284, 3-(1-(naphthalene-2-yloxy)butyl)azetidine hydrochloride] |  |  |  |  |  |  |  |  |  | 77 | 8.55 | 79.5 | 710 | 

From US9120771B2, “Azetidine derivative and antidepressant composition including the same” (KOREA INSTITUTE OF SCIENCE AND TECHNOLOGY, priority 2011, dated 2015)
